Results published in paper PMC13252604, “First Generation Proteolysis Targeting Chimeras (PROTACs) for the Treatment of Progeria” (Advanced Science, 2026).
Values after ≈ are worked out from the molar mass of the structure shown.

Columns and labels:
HGADFN167 cells = assay: RNA-seq global transcriptomic analysis; format: cell-based, human; details: HGADFN167, 5 µM, 20 days
Experimental: To establish the broader impact of PROTAC 2 at the molecular level, we performed detailed gene expression and pathway‐centric enrichment analysis. HGADFN167 cells were treated with either vehicle or compound 2 (5 µM) for 20 days before RNA was extracted for RNA‐seq analysis (3 independent biological samples per condition). […] Remarkably, IL6 identification supports the qPCR results previously obtained (Figure 6C). […] In line with these findings, we identified several genes associated with endothelial and blood vessel development (CLDN11 and FOXS1), ECM organization (PTX3, SCUBE3, TINAGL1, and TNFRSF11B), and mesodermal and mesenchymal regulation (MEST, MEDAG, and STC2).
Cells were harvested by trypsin, centrifuged and washed with PBS. Cells pellets were added with 70% (vol/vol) ice-cold ethanol. The mixture was incubated for 15min at 4 °C, centrifuged 2500 rpm, washed with PBS and then re-suspended in 500ul staining buffer (25ug/mL propidium iodide and 100μg/ml DNAse-free RNAse both from Sigma-Aldrich in PBS). The mixture was then allowed to incubate for 30min at 37 °C in the dark and samples were finally analysed by FACScalibur (Becton Dickinson) flow cytometer
11. Transmission electron microscopy.
Cells previously collected in 1.5 mL tube, were washed with PBS and fixed with 2.5% glutaraldehyde and 4% paraformaldehyde in Milloning´s phosphate buffer (41.5 mL 2.26% NaH2PO4·H2O and 8.5 mL 2.52% NaOH both in milliQ water, pH 7.2-7.4) for 4h at 4 °C. […]
Cells were incubated for 1 h in 1% OsO4 at room temperature and then thoroughly washed with milliQ water. […] The samples were analysed and examined in the transmission electron microscope JEM 1010 at 80 […]
Total RNA of HGPS fibroblasts (HGADFN167) and UCM-18142-treated HGPS fibroblasts were extracted for RNA sequencing. The RNA concentration and integrity were assessed using the Tape Station 4150 system (Agilent). […] All raw reads were mapped to the human genome (Grch38) using the software HISAT2. HTSeq was used to calculate Reads Count and transcripts per kilobase per million reads were computed. […]

[1] = Solubility in phosphate buffer solution; format: physicochemical; details: aqueous buffer; phosphate buffer solution (PBS, pH = 7.5)

Question: For `CC1(C)Oc2cc3oc(=O)ccc3cc2C[C@@H]1OC(=O)CCCCCNc1cccc2c1C(=O)N(C1CCC(=O)NC1=O)C2=O` (stereo partly shown) [compound 2], which downregulated genes (HGADFN167 cells; adjusted p<0.01, log2 FC <−1.0) is on record?
Answer: 205

Question: And the upregulated genes (HGADFN167 cells; adjusted p<0.01, log2 FC >1.0)?
Answer: 83

Question: And the “differentially expressed genes, treated vs non‐treated” value (HGADFN167 cells; adjusted p<0.01, log2 FC >1.0 or <−1.0)?
Answer: 288

Question: And the solubility [1]?
Answer: 0.5 µM (≈ 0.308 µg/mL)
